Key:
[1] = target: T1, Beta-2 adrenergic receptor (Homo sapiens, UniProt P07550); experiment: Agonist activity at human beta2 adrenergic receptor expressed in CHO cells assessed as stimulation of intracellular cAMP production after 30 mins of washing by wash-off assay; format: functional, cell-based
Target sequence in this assay (P07550 whole entry): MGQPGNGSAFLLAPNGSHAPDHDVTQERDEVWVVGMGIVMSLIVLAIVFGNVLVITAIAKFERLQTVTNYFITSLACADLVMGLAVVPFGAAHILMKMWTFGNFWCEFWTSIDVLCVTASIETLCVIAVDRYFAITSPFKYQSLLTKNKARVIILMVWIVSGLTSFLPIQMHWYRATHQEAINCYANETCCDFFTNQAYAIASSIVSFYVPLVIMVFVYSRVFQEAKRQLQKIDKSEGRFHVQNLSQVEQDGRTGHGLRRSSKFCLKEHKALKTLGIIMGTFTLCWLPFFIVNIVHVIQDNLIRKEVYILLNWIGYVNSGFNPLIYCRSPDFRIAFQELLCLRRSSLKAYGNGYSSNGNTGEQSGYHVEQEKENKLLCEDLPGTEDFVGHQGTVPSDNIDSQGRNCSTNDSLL

[2] = Clearance in human liver microsomes; format: ADME, Microsome
[3] = target: T2, Muscarinic acetylcholine receptor M3 (Homo sapiens, UniProt P20309); experiment: Displacement of [3H]N-methyl Scopolamine from human muscarinic M3 receptor expressed in CHO cells by scintillation proximity assay; format: cell-based
Target sequence in this assay (P20309 whole entry): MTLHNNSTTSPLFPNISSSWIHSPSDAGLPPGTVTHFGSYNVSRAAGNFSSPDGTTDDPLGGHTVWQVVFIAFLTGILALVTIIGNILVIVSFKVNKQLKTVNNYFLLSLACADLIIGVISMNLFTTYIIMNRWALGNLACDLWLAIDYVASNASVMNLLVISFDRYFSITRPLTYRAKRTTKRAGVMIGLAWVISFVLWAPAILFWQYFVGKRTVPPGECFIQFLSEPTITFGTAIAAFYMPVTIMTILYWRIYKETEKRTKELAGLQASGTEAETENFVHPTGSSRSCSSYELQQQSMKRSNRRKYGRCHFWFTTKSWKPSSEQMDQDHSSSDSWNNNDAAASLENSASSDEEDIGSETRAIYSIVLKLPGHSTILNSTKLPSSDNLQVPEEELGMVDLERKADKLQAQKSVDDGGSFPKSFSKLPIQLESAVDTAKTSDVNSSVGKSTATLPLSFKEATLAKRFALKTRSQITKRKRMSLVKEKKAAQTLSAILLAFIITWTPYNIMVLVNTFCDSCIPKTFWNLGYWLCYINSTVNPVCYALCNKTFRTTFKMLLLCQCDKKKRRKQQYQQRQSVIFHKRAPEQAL

[4] = target: T2, Muscarinic acetylcholine receptor M3; experiment: Displacement of [3H]NMS from human muscarinic M3 receptor expressed in CHO cells assessed as time required to reach 50% of total [3H]NMS binding by dilution-offset methodology; format: cell-based
Target sequence in this assay (P20309 whole entry, looked up): as the sequence (P20309 whole entry) above

[5] = target: T1, Beta-2 adrenergic receptor; experiment: Ratio of EC50 for human beta2 adrenergic receptor by unwashed assay to EC50 for human beta2 adrenergic receptor expressed in CHO cells by wash-off assay; format: cell-based
Target sequence in this assay (P07550 whole entry, looked up): as the sequence (P07550 whole entry) above

[6] = Bronchodilatory activity against electrically-stimulated contraction in guinea pig trachea assessed as time taken for inducing 50% maximum relaxant effect; format: functional, Cavia porcellus
[7] = target: Muscarinic acetylcholine receptor M3 (Cavia porcellus, UniProt Q8VH26); experiment: […] activity at muscarinic M3 receptor in guinea pig trachea assessed as bronchorelaxation activity in presence of propranolol; format: functional, tissue-based
Chain of Muscarinic acetylcholine receptor M3 (Cavia porcellus, UniProt Q8VH26) (Q8VH26 whole entry): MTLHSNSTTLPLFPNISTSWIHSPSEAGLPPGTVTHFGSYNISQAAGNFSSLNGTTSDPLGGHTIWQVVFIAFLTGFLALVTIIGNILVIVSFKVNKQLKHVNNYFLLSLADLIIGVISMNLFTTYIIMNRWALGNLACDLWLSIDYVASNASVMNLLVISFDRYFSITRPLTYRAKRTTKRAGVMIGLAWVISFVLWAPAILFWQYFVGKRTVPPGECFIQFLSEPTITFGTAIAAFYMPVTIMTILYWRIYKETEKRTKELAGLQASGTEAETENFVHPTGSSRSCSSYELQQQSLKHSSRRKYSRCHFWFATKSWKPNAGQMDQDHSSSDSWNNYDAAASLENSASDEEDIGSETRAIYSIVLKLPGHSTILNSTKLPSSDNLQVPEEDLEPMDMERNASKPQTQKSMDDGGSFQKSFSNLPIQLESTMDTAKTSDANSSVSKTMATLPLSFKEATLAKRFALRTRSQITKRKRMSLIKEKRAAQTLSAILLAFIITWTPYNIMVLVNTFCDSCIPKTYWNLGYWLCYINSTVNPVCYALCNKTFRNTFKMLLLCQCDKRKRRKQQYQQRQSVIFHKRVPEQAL

[8] = target: Beta-2 adrenergic receptor (Cavia porcellus, UniProt Q8K4Z4); experiment: Agonist activity at adrenergic beta2 receptor in guinea pig trachea assessed as bronchorelaxation activity against histamine-induced contraction; format: functional
Chain of Beta-2 adrenergic receptor (Cavia porcellus, UniProt Q8K4Z4) (Q8K4Z4 whole entry): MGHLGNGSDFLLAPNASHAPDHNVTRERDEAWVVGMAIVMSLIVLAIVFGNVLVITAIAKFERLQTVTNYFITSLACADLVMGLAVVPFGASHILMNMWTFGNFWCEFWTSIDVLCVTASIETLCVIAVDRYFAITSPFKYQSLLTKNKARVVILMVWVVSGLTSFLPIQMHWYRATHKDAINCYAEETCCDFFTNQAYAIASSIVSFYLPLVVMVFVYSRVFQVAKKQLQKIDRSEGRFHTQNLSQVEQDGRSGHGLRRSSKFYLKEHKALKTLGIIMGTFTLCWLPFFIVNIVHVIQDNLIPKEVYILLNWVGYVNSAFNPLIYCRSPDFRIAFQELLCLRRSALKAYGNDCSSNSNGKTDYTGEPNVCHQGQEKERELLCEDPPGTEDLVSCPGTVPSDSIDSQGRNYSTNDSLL

[9] = target: Muscarinic acetylcholine receptor M3 (Cavia porcellus) (UniProt Q8VH26); experiment: […] activity at muscarinic M3 receptor in guinea pig trachea assessed as time taken for inducing bronchorelaxation activity in presence of propranolol; format: functional, tissue-based
Chain of Muscarinic acetylcholine receptor M3 (Cavia porcellus) (Q8VH26 1-587): as the sequence (Q8VH26 whole entry) above

[10] = Bronchodilatory activity against electrically-stimulated contraction in guinea pig trachea assessed as concentration required for 50% bronchorelaxation activity; format: functional, tissue-based, Cavia porcellus
Canis familiaris [11] = species: Canis familiaris; experiment: Inhibition of methacholine-induced bronchoconstriction in dog assessed as duration action at 30 ug, it; format: functional, Canis lupus familiaris
[12] = Clearance in rat at 2 mg/kg, iv; format: ADME, organism-based; set-up: dose 2 mg/kg, route intravenous; details: in vivo
[13] = Oral bioavailability in human; format: ADME, organism-based; details: in vivo
[14] = AUC in rat at 2 mg/kg, iv; format: ADME, organism-based; set-up: dose 2 mg/kg, route intravenous; details: plasma
Canis familiaris [15] = species: Canis familiaris; experiment: Inhibition of methacholine-induced bronchoconstriction in dog; format: functional, Canis lupus familiaris

| Structure (SMILES) | EC50 [1] | microsomal CLint [2] | Ki [3] | TIME [4] | Ratio EC50 [5] | Time [6] | EC50 [7] | EC50 [8] | TIME [9] | EC50 [10] | Time (Canis familiaris [11]) | clearance [12] | bioavailability [13] | AUC [14] | ED50 (Canis familiaris [15]) |
| --- | --- | --- | --- | --- | --- | --- | --- | --- | --- | --- | --- | --- | --- | --- | --- |
| CC(C)N(CC[C@H](c1ccccc1)c1cc(CCCCOCCCCCCNC[C@H](O)c2ccc(O)c(NS(C)(=O)=O)c2)ccc1O)C(C)C | 5.7 nM | 57 µL/min/mg | 0.99 nM | > 20 h | 0.7 | – | – | – | – | – | – | – | – | – | – |
| CC(C)N(CC[C@H](c1ccccc1)c1cc(CCCNC(=O)CCCCCCCCCCNC[C@H](O)c2ccc(O)c(NS(C)(=O)=O)c2)ccc1O)C(C)C | 116 nM | 87 µL/min/mg | 1.45 nM | – | 7.3 | – | – | – | – | – | – | – | – | – | – |
| C[C@H](Cc1cccc(CC(=O)NCc2ccc(Cl)c(Cl)c2)c1)NC[C@H](O)c1ccc(O)c(CO)c1 | 1.1 nM | > 440 µL/min/mg | – | – | 2.9 | – | – | – | – | – | – | – | – | – | – |
| CC(C)N(CC[C@H](c1ccccc1)c1cc(CCCNC(=O)Cc2cccc(C[C@@H](C)NC[C@H](O)c3cc(O)cc(O)c3)c2)ccc1O)C(C)C | 15 nM | > 440 µL/min/mg | 0.397 nM | 2.25 h | 0.7 | – | – | – | – | – | – | – | – | – | – |
| CC(C)N(CC[C@H](c1ccccc1)c1cc(CCCCOc2ccc(CCNC[C@H](O)c3ccc(O)c(NS(C)(=O)=O)c3)cc2)ccc1O)C(C)C | 13 nM | 67 µL/min/mg | 0.634 nM | > 20 h | 1.9 | – | – | – | – | – | – | – | – | – | – |
| CC(C)N(CC[C@H](c1ccccc1)c1cc(CCCCOc2ccc(CCNC[C@H](O)c3ccc(O)c(O)c3)cc2)ccc1O)C(C)C | 173 nM | – | 4.7 nM | – | – | – | – | – | – | – | – | – | – | – | – |
| CC(C)N(CC[C@H](c1ccccc1)c1cc(CCCNC(=O)Cc2cccc(CC(C)(C)NC[C@H](O)c3ccc(O)c(NS(C)(=O)=O)c3)c2)ccc1O)C(C)C | 8.1 nM | 109 µL/min/mg | 0.276 nM | 2.77 h | 1.1 | >6.5 h | 5.3 nM | 2.1 nM | 4.8 h | 1.3 nM | – | – | – | – | – |
| Cc1ccc(O)c([C@H](CCN(C(C)C)C(C)C)c2ccccc2)c1 [TOLTERODINE] | – | 163 µL/min/mg | – | < 0.25 h | – | – | – | – | – | – | – | – | – | – | – |
| CC(C)N(CC[C@H](c1ccccc1)c1cc(CCCNC(=O)Cc2cccc(CC(C)(C)NC[C@H](O)c3ccc(O)c(CO)c3)c2)ccc1O)C(C)C | 17 nM | 263 µL/min/mg | 0.091 nM | 5.92 h | 2.8 | – | – | – | – | – | – | – | – | – | – |
| CC(C)N(CC[C@H](c1ccccc1)c1cc(CCNC[C@H](O)c2ccc(O)c(NS(C)(=O)=O)c2)ccc1O)C(C)C | 10 nM | – | 6.1 nM | < 0.25 h | 19 | – | – | – | – | – | – | – | – | – | – |
| CC(C)N(CC[C@H](c1ccccc1)c1cc(CCCCOc2ccc(CCNC[C@H](O)c3ccc(O)c(CO)c3)cc2)ccc1O)C(C)C | 129 nM | 54 µL/min/mg | 0.765 nM | > 20 h | 2.6 | – | – | – | – | – | – | – | – | – | – |
| CC(C)N(CC[C@H](c1ccccc1)c1cc(CCCCOc2ccc(CCNC[C@H](O)c3ccc(O)c4[nH]c(=O)ccc34)cc2)ccc1O)C(C)C | 2.4 nM | 74 µL/min/mg | 0.305 nM | > 20 h | 1.1 | >7.7 h | 4 nM | 4 nM | > 10 h | 4.1 nM | >16 h | 12.6 mL/min/kg | < 5% | 2670 ng·h/mL | 30 µg |
